This is an account of results in patent publication EP3628672A1 (priority 2018, dated 2020).

One experiment concerns the target T1, LasB (Pseudomonas aeruginosa, UniProt P14756).
T1 construct: uses as source of enzyme dialysed supernatant from P. aeruginosa PAO1; endogenous in cells; host or cells: P. aeruginosa PAO1 culture supernatant, filtered and dialysed
The experiment can be described thus: Elastin assay to determine % inhibition (Elastin Congo-Red, dialysed culture supernatant). The class given is biochemical, P. aeruginosa PAO1. The conditions noted are these: read-out: Elastin hydrolysis % inhibition @ 50 / 25 µM inhibitor concentration. The gist of the method: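 Enzyme source was dialysed PAO1 culture supernatant (50 mM Tris-HCl pH 7.4, 2.5 mM CaCl2), mixed with Elastin Congo-Red and 0.01% Triton X-100. Compound was routinely 50 to 1.56 µM, incubated overnight at 37 °C with shaking. Dye release at OD495 gave % inhibition relative to DMSO and no-enzyme controls.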

Experiment [1] has as its target T2, purified LasB protein from P. aeruginosa (Pseudomonas aeruginosa, UniProt P14756).
T2 construct: purchased Merck or Charles River Laboratories
The experiment in a line: Fluorometric assay to determine Ki (Abz-Ala-Gly-Leu-Ala-p-Nitro-Benzyl-Amide substrate). In kind it is biochemical. In a few lines: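 Purified P. aeruginosa LasB (10–140 ng/ml) with 250 µM Abz-Ala-Gly-Leu-Ala-p-nitrobenzylamide in 50 mM Tris-HCl pH 7.4, 2.5 mM CaCl2, 0.01% Triton X100, 37 °C; hydrolysis fluorescence (Ex 340/Em 415 nm) followed over 30 min, inhibitor 0.0016–200 µM. Ki = IC50/(1+[S]/Km), Km 214 µM.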

A further experiment relates to NCI-H292. The experiment in a line: Cellular model: Trappin-2 content (ELISA) in lung epithelial cells treated with PAO1 supernatant. In kind it is cell-based, human. The conditions noted are these: PAO1 supernatant pre-incubated with compound 1h at 37°C, 6h incubation. An excerpt: (§1) These degradations are beneficial for P. aeruginosa pathogenesis by inhibiting antimicrobial peptide while impairing lung function of the host by promoting lung damage and inhibiting epithelial cell repair. In mice, intranasally instillated LasB induced significant inflammation, injury and death. […] Our compounds are therefore been tested in cellular models to define inhibitory effect of our series on LasB deleterious effect on human lung epithelial cell models (NCI-H292 and CFBE). Supernatants from PAO1 wild type and lasB mutant (PAO1ΔlasB) are pre-incubated with Example 1 at 10 times the final concentrations for 1h at 37°C. Then, supernatants are added to cell lines. After 6h incubation, cell culture supernatants are recovered, IL-6 and Trappin-2 contents are analysed by ELISA method. A Student t-Test is performed to assess the statistical significance between conditions (p < 0.05, *). NCI-H292 and CFBE cells express respectively Trappin-2 and IL-6. Whether treatment with culture supernatant from PAO1ΔlasB induces an overexpression of both immune factors, the treatment with PAO1 supernatant lead to strong reduction of IL-6 and Trappin-2 detected. LasB, hydrolyzing IL-6 and Trappin-2, hijacks the immune response against PA. […] By restoring immune response and secretion of IL-6 and Trappin-2, Example 1 and related LasB inhibitors may restore eradication of PA by the immune system.
For orientation: An ELISA detects its analyte on a solid surface through an enzyme-linked reagent.

Another experiment deals with CFBE. The experiment in a line: Cellular model: IL-6 content (ELISA) in lung epithelial cells treated with PAO1 supernatant. The class given is cell-based, human. The conditions noted are these: PAO1 supernatant pre-incubated with compound 1h at 37°C, 6h incubation.
Source text: as §1

T2 sequence (P14756 198-498): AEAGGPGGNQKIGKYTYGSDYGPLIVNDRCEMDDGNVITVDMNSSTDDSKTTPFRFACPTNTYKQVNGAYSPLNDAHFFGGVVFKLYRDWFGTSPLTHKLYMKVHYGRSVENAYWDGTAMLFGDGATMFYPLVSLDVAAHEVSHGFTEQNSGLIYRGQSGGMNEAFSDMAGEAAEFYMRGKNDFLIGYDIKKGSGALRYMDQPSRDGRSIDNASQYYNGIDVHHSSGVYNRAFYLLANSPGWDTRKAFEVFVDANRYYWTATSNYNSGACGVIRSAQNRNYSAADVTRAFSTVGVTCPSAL
T1 sequence (P14756 198-498): as above

Usually Ki stands for the equilibrium dissociation constant of an inhibitor or competing ligand from its target. A higher Ki goes with a looser hold on the target. With `O=C(O)CC1(C(=O)NCc2nc(-c3ccccc3)cs2)Cc2ccccc2C1` [Example 1, 2-[2-[(4-phenylthiazol-2-yl)methylcarbamoyl]indan-2-yl]acetic acid], the inhibition at 25 µM at LasB is over 75%. The inhibition constant Ki in experiment [1] lay in the range of 50 to 200 nM. Also, in the experiment with NCI-H292, the “level of Trappin-2” value was “restored in a dose response maneer level of both Trappin-2 and IL-6 similar to the control”. The “level of IL-6” value in the experiment on CFBE is “restored in a dose response maneer level of both Trappin-2 and IL-6 similar to the control”.

As to `O=C(O)CC1(C(=O)NCc2nc(-c3ccc(OCc4ccncc4)nc3)cs2)Cc2ccccc2C1` [Example 142, 2-[2-[[4-[6-(4-pyridylmethoxy)-3-pyridyl]thiazol-2-yl]methylcarbamoyl]indan-2-yl]acetic acid], the inhibition at 25 µM on LasB is over 75%. The same compound displayed a Ki in experiment [1] of under 50 nM.

For the compound `C[n+]1ccc(COc2ccc(-c3csc(CNC(=O)C4(CC(=O)[O-])Cc5ccccc5C4)n3)cn2)cc1` [Example 143, 2-[2-[[4-[6-[(1-methylpyridin-1-ium-4-yl)methoxy]-3-pyridyl]thiazol-2-yl]methylcarbamoyl]indan-2-yl]acetate], the inhibition at 25 µM at LasB lay within 10 to 60%. This compound came in with a Ki in experiment [1] of 50 to 200 nM.

For the compound `O=C(O)CC1(C(=O)NCc2nc(-c3ccccc3OC(F)(F)F)cs2)Cc2ccccc2C1` [Example 145, 2-[2-[[4-[2-(trifluoromethoxy)phenyl]thiazol-2-yl]methylcarbamoyl]indan-2-yl]acetic acid], the inhibition at 25 µM at LasB was 60 to 75%. This compound registered a Ki in experiment [1] of 50 to 200 nM.

In the case of `COc1ccccc1-c1csc(CNC(=O)C2(CC(=O)O)Cc3ccccc3C2)n1` [Example 146, 2-[2-[[4-(2-methoxyphenyl)thiazol-2-yl]methylcarbamoyl]indan-2-yl]acetic acid], the inhibition at 25 µM on LasB fell in the range of 60 to 75%. The compound also showed a Ki in experiment [1] of 50 to 200 nM.

As to `CCc1ccccc1-c1csc(CNC(=O)C2(CC(=O)O)Cc3ccccc3C2)n1` [Example 147, 2-[2-[[4-(2-ethylphenyl)thiazol-2-yl]methylcarbamoyl]indan-2-yl]acetic acid], the inhibition at 25 µM on LasB was 60 to 75%. The inhibitory constant (Ki) in experiment [1] is 50 to 200 nM.

Consider `O=C(O)CC1(C(=O)NCc2nc(-c3ccccc3CO)cs2)Cc2ccccc2C1` [Example 148, 2-[2-[[4-[2-(hydroxymethyl)phenyl]thiazol-2-yl]methylcarbamoyl]indan-2-yl]acetic acid], for which the inhibition at 25 µM on LasB fell in the range of 60 to 75%. In experiment [1], the Ki was 50 to 200 nM.
